Results reported in patent publication US20050288280A1, “Meloxicam in veterinary medicine” (Boehringer Ingelheim Vetmedica GmbH, priority 2004, published 2005).

Columns and labels:
dairy cows = conditions: administered intramammarily in dairy cows; cited from earlier work
[1] = test system: dairy cows with clinical mild or moderate mastitis; test: Clinical field study: response thresholds to mechanical stimuli (hypersensitivity) in dairy cows with clinical mastitis; assay type: in vivo; conditions: adjunct to intramammary cefquinome, hind limbs, 6-8 examinations over 45 days, meloxicam groups vs antibiotics alone P<0.001
Procedure: Therefore, as already mentioned, dairy cows were studied to assess pain associated with moderate or mild mastitis. Based on the abovementioned study directed to the newly established method for the measurement of pain in food producing animals, a clinical field study was used to investigate, besides painful chronic conditions in cows with mild and moderate mastitis, the analgesic efficacy and long duration of action of meloxicam. In such clinical field study, meloxicam was administered only once as adjunct to intramammary antibiotic therapy and was compared to a second group where animals received re-treatments with meloxicam after 3 and 6 days. A third group received the antibiotic stand alone therapy. The distance between the hocks was measured as a proxy indicator of altered cow stance. Response thresholds to mechanical stimuli were measured on each hind limb using a modification of the method described by Nolan and others (A. Nolan, A. Livingston, R. Morris, and A. Waterman, Techniques for comparison of thermal and mechanical nociceptive stimuli in the sheep, J. Pharmacol. Methods 1987, 17, pp. 39-49). […] Response thresholds to mechanical stimuli were measured on each hind limb. […]

SMILES	long lasting analgesic activity (dairy cows)	threshold responses to mechanical stimuli (mechanical hyperalgesia) [1]
Cc1c(Nc2ncccc2C(=O)O)cccc1C(F)(F)F [flunixin meglumine]	did not achieve a long lasting analgesic activity	
CO/N=C(\C(=O)N[C@@H]1C(=O)N2C(C(=O)[O-])=C(C[n+]3cccc4c3CCCC4)CS[C@H]12)c1csc(N)n1 [antibiotics, cefquinome]		greater differences
